The test deals with Influenza A virus. Briefly: Anti-viral activity against Influenza A virus amantadine-resistant strain (A/Puerto Rico/8/34) infected in MDCK cells assessed as inhibition of virus cytopathic effect measured after 48 hrs by crystal violet staining based assay. It counts as functional, organism-based. The settings on record: A/Puerto Rico/8/34, MDCK. For orientation: Cytopathic effects are the visible damage that an infection or toxin causes in cultured cells.

pIC50: −log10 of the molar value.

By pIC50 is commonly meant the negative decadic logarithm of the IC50, by convention in mol/L.

Consider `CC(=O)c1cc(C)c(O)c(Cc2[nH]c3cc(-c4c5ccccc5c(-c5ccccc5)c5ccccc45)ccc3c2Cc2c(O)c(C)cc(C(C)=O)c2O)c1O`, for which the pIC50 is under 4.52.

Take `CCOC(=O)C1=C[C@@H](OC(CC)CC)[C@H](NC(C)=O)[C@@H](N)C1` [OSELTAMIVIR]: the pIC50 was 4.94.

Values taken from ChEMBL document CHEMBL5625170, “Design, synthesis, and biological evaluation of novel penindolone derivatives as potential inhibitors of hemagglutinin-mediated membrane fusion” (Eur J Med Chem, 2023).
